# In US12497396B2, “Nitrogen-containing heterocyclic derivatives, method therefor and application therefor as inhibitors of KRAS G12C for the treatment of cancers” (SHANGHAI HANSOH BIOMEDICAL CO., LTD., priority 2019, dated 2025):
# What was measured:
# in vivo = conditions: male, Balb/c, mouse, po, 10 mg/kg
# Experimental: 5 g of Hydroxyethyl cellulose (HEC, CMC-Na, viscosity: 800-1200 Cps) was weighed, dissolved in 1000 mL of purified water, and 10 g of Tween 80 was added. The mixture was mixed well to form a clear solution.
# The embodiment compounds were weighed and added into 4-mL glass bottles, respectively, 2.4 mL of the solution was added, and ultrasound was performed for 10 minutes to obtain a colorless clear solution with a concentration of 1 mg/mL.
# Balb/C mice, males; PO, after overnight fasting, respectively, at a dose of 10 mg/kg, administered in a volume of 10 mL/kg.
# Blood samples were collected before administration and 0.083 h, 0.25 h, 0.5 h, 1 h, 2 h, 4 h, 6 h and 8 h after administration, the blood was placed in EDTA-2K tube, centrifuged at 4° C. 6000 rpm for 6 min to separate plasma, and stored at −80° C.; food was consumed 4 hours after drug administration.
# human KRAS G12C protein = target: T1, human KRAS G12C protein (Homo sapiens, UniProt P01116, G12C); assay: Thermal shift: melting temperature of KRAS G12C protein; assay type: binding
# T1 construct: purchased Beijing SinoBiological Co., Ltd. 12259-H07E2
# Experimental: A solution containing […] (pH 7.5), 1 mM DTT, 5×SYPRO Orange and 150 mM NaCl was prepared as the experimental buffer, and a final concentration of 5.37 μM human KRAS G12C protein was added thereto. […] After incubating at room temperature in the dark for 1 hour, the PCR tube was put into the PCR instrument, QuantStudio Software v1.3 was opened, and the melting temperature of KRAS G12C protein in different treatment groups was detected by melt curve function (heating from 25° C. to 95° C., 0.03° C./s). The experimental data file of PCR instrument was imported into thermal shift software, and the melting temperature (Tm) of each treatment group was obtained, and the change value of melting temperature (Δ Tm) was obtained by subtracting the Tm of DMSO solvent control group.
# [1] = system: Mia PaCa-2 cells (KRAS G12C mutant cell line); assay: Inhibition of Mia PaCa-2 cell proliferation (CellTiter-Glo, 72 h); assay type: cell-based, human; conditions: Homo sapiens
# Excerpt: (§1) As a preferred embodiment of the present disclosure, the detection method of NCI-H358 cell proliferation inhibitory activity and Mia PaCa-2 cell proliferation inhibitory activity is as follows: through cell culture, adding different concentrations of compound solutions to the cultured cells, continuing the culture for a period of time and measuring the cell proliferation; • further, the method of cell culture is: adjusting the cells to a suitable cell concentration with complete medium and spreading the cell suspension in well plates for culture; preferably, the culture conditions are 37° C., 5% CO2 incubator overnight; preferably, the cell suspension is spread in 96-well plates, 48-well plates, 24-well plates, 12-well plates or 6-well plates, more preferably 96-well plates; preferably, the suitable cell concentration is 1500-4000 cells/well, with 90 μL of cell suspension added to each well; • further, the compound solution is prepared with DMSO and may be further diluted with medium; preferably, the compound solution has a concentration gradient starting from 100 μM at 4-fold dilution, more preferably starting from 30 μM at 4-fold dilution, most preferably starting from 10 μM at 4-fold dilution; • further, the volume of the compound solution or solvent added to each well is 1-10 μL, preferably 10 μL; • further, after adding the compound solution, the conditions for continuing the culture are 37° C., 5% CO2 incubator; preferably, the culture time is 24-72 h, more preferably 72 h; • further, the method for measuring cell proliferation is MTT, CCK8, CellTiter-Glo; preferably the method is CellTiter-Glo; • further, the cell proliferation is read using a microplate reader, more preferably a BioTek Synergy H1 microplate reader.
# (§2) When NCI-H358 or Mia PaCa-2 cells were cultured to the appropriate fusion level, the NCI-H358 or Mia PaCa-2 cells were collected, and the cells were adjusted to the appropriate cell concentration using a complete medium, and the cell suspension was spread in a 96-well plate, 90 μL per well, and placed in a 37° C., 5% CO2 incubator overnight; and compound solutions of different concentrations were prepared using DMSO and culture medium; and a solvent control was set, the compound solution was added to a 96-well plate, 10 μL per well, at 37° C. in a 5% CO2 incubator for 72 hours; CellTiter-Glo solution was added thereto and the mixture was mixed well by shaking, incubated for 10 min in the dark, and read by BioTek Synergy H1 microplate reader.
# (§3) The luminescence signal values were used to calculate the inhibition rate, the concentration and the inhibition rate were fitted to a nonlinear regression curve using Graphpad Prism software, then the IC50 value was obtained.
# [2] = system: NCI-H358 cells (KRAS G12C mutant cell line); assay: Inhibition of NCI-H358 cell proliferation (CellTiter-Glo, 72 h); assay type: cell-based, human; conditions: Homo sapiens
# Excerpt: as §1, §2, §3
# [3] = system: human lung cancer NCI-H358 cell xenograft; assay: In vivo pharmacodynamics on human lung cancer NCI-H358 cell xenograft tumor model; design: species or system BALB/c nude mice
# Experimental: • BALB/c nude mice, 6-8 weeks old, female, purchased from Shanghai Xipuer-Bikai Experimental Animal Co., Ltd. 6.3.2 Cell Culture and Cell Suspension Preparation • 1) MiaPaca-2 cells were taken out from the cell bank and resuscitated with DMEM medium (DMEM+10% FBS), the resuscitated cells were placed in a cell culture flask (labeled with cell type, date, name of cultured person, etc.) and cultured in a CO2 incubator (incubator temperature was 37° C., CO2 concentration was 5%) (the method of resuscitating NCI-H358 cells was the same as MiaPaca-2 cells in test embodiment 5, and the culture medium was changed to RPMI-1640 medium). • 2) Passage was conducted every three to five days, and the cells was continued to be cultured in CO2 incubator after passage. The process was repeated until the cell count meets the in vivo pharmacodynamic requirements. • 3) MiaPaca-2 cells were collected and counted by automatic cell counter, according to the counting results, the cells were re-suspended with PBS and Matrigel (ratio was 1:1) to make cell suspension (cell density was 5×10^7/mL), then placed in a ice box for use (NCI-H358 cells were re-suspended with PBS without adding Matrigel, cell density was 1×10^8/mL). 6.3.3 Sample Preparation: • 1) Solvent: solvent (0.5% CMC-Na+1% Tween 80), storage condition: 4° C.
# 0.5 g of CMC-Na was weighted, dissolved in ddH2O, then 1.0 mL of Tween 80 was added and the mixture was stirred to mix well, and the volume was finally set to 100 mL. • 2) Compound to be tested (10 mg/kg) was prepared:
# 8.42 mg of AMG510 compound was weighted, 8.260 mL of solvent was added, a uniform solution was obtained by ultrasound, vortexing and stirring.
# 7.81 mg of embodiment compound 165-1 was weighted, 7.654 mL of solvent was added, a uniform solution was obtained by ultrasound, vortexing and stirring.
# • 1) Before inoculation, nude mice were labeled with disposable universal ear tags of rats and mice; • 2) when inoculating, the cell suspension was mixed well, 0.1-1 mL cell suspension was extracted with a 1 mL syringe, bubbles were removed, and then the syringe was put on an ice bag for later use; • 3) the nude mice was held with left hand, the right back of nude mice near the right shoulder (inoculation site) was disinfected with 75% alcohol, and inoculation was started after 30 seconds; • 4) the experimental nude mice were inoculated in turn (each mouse was inoculated with 0.1 mL of cell suspension); 6.3.4 Tumor-Bearing Mouse were Measured, Grouped, and Administered: • 1) According to the tumor growth, the tumor was measured on the 18th day after inoculation, and the tumor size was calculated. tumor volume (mm^3)=length (mm)×width (mm)×width (mm)/2 Tumor volume calculation: • 2) The tumor-bearing mice were grouped according to their body weight and tumor size using a randomized grouping method. • 3) According to the grouping results, the administration of the test drug was started (administration method: oral administration; administration dose: 10 mg/kg; administration volume: 10 mL/kg; administration frequency: once a day; administration period: 21 days; solvents: 0.5% CMC/1% Tween 80). • 4) The tumor was measured and weighed twice a week after the test drug was started to be given. • 5) After the experiment, all animals were euthanized. • 6) Data was processed with software such as Excel. […]
# [4] = Plasma stability, dog plasma; assay type: in vitro ADME; conditions: dog plasma, 37° C.
# Experimental: (§4) Animal or human whole blood was collected, then the blood was put into a test tube containing anticoagulant, centrifuged at 3500 rpm for 10 min, and the upper layer of pale yellow plasma was collected. • 2), 10 μM of tested compound (m/M/V=C)
# (§5) The compound was weighed, the stock solution was prepared with DMSO and the working solution was prepared with 100 mM phosphate buffer. • 3), 10 μM of positive control (1) Propantheline (Propantheline Mr=449.4 Da)
# (§6) • 1) 285 μL of plasma and 15 μL of 10 μM compound (tested compound) were added in turn in a 96-well plate, and incubated at 37° C. • 2) 40 μL was taken out at 0, 15, 30, 60, 90, 120 min, respectively, and 160 μL of acetonitrile termination solution containing internal standard was added. • 3) After centrifugation (3500 rpm, 10 min), 50 μL of supernatant was taken out, and then diluted with 50 μL DDH2O and injected to LC-MS/MS.
# (§7) • Instrument: Shimadzu LC-20 AD • Chromatographic column: phenomenex Gemiu® C18 (50*4.6 mm, 5 μM particle size); • mobile phase: A: acetonitrile, B: 0.1% formic acid solution […], 2.0-2.1 min: 90% A→5% A; flow rate: 0.8 mL/min; running time: 5.0 min; injection volume: 5 μL.
# (§8) • Instrument: API4000 Liquid Chromatography-Mass Spectrometry, AB, USA; • the ion source was electrospray ionization source (ESI); • the temperature of dry gas (N2) was 500° C.; • electrospray voltage was 5500V; • the detection method was positive ion detection; • the scanning mode was selective response monitoring (MRM). • the scanning time was 0.1 s.
# [5] = Plasma stability, rat plasma; assay type: in vitro ADME; conditions: rat plasma, 37° C.
# Experimental: as §4, §5, §6, §7, §8
# in vitro = in vitro ADME
# Experimental: as §4, §5, §6, §7, §8
compound,measurement,setting,value
"C=CC(=O)N1C[C@H](C)N(c2nc(=O)n(-c3c(SC)ccnc3C(C)C)c3nc(-c4c(O)cccc4F)c(F)cc23)C[C@H]1C [Embodiment 114, 4-((2S, 5R)-4-acryloyl-2,5-dimethylpiperazin-1-yl)-6-fluoro-7-(2-fluoro-6-hydroxyphenyl)-1-(2-isopropyl-4-(methylthio)pyridin-3-yl) pyrido [2,3-d] pyrimidin-2 (1H)-one]",AUC(0-inf),in vivo,1290 ng·h/mL
same,Cmax,in vivo,1530 ng/mL
same,MRT,in vivo,42 min
same,Tmax,in vivo,15 min
same,half-life,in vivo,36 min
same,Tm (° C.),"human KRAS G12C protein; KRAS G12C protein 5.37 μM with compound 10 μM, 1 hour incubation",57.2 °C
same,ΔTm at 10 µM,"human KRAS G12C protein; compound 10 μM, Tm minus Tm of DMSO solvent control",8.5 °C
same,IC50,[1],43 nM
same,IC50,[2],50 nM
"C=CC(=O)N1CCN(c2nc(=O)n(-c3c(C)ccnc3C(C)C)c3nc(-c4c(O)cccc4F)c(F)cc23)[C@@H](C)C1 [AMG-510, reference compound]",TGI (%) Day 15,"[3]; Day 15, 10 mpk oral once a day",38.02%
same,"tumor volume (mm^3, Mean ± SD) Day 15","[3]; Day 15, 10 mpk oral once a day",324 ± 204 mm^3
same,ΔT/ΔC(%) Day 15,"[3]; Day 15, 10 mpk oral once a day",61.98%
same,"tumor volume (mm^3, Mean ± SD) Day 0","[3]; baseline Day 0, 10 mpk oral once a day",202 ± 72 mm^3
"CC[C@H](C)C(=O)O[C@H]1C[C@@H](C)C=C2C=C[C@H](C)[C@H](CC[C@@H]3C[C@@H](O)CC(=O)O3)[C@H]21 [Lovastatin, reference compound]",t1/2,[4],80.22 min
same,Residual rate (%) 0 min,[4],100.00%
same,Residual rate (%) 15 min,[4],95.25%
same,Residual rate (%) 30 min,[4],95.45%
same,Residual rate (%) 60 min,[4],75.66%
same,Residual rate (%) 120 min,[4],36.25%
same,t1/2,[5],6.69 min
same,Residual rate (%) 0 min,[5],100.00%
same,Residual rate (%) 15 min,[5],21.15%
same,Residual rate (%) 30 min,[5],1.77%
same,Residual rate (%) 60 min,[5],0.36%
same,Residual rate (%) 120 min,[5],0.30%
"C=CC(=O)N1CCN(c2nc(=O)n(-c3c(C)ccnc3C(C)C)c3nc(-c4c(O)cccc4F)c(F)cc23)[C@@H](C)C1 [AMG 510, reference compound]",Residual rate (%) 0 min,[4],100.00%
same,Residual rate (%) 15 min,[4],98.88%
same,Residual rate (%) 30 min,[4],101.14%
same,Residual rate (%) 60 min,[4],93.43%
same,Residual rate (%) 120 min,[4],91.92%
same,Residual rate (%) 0 min,[5],100.00%
same,Residual rate (%) 15 min,[5],100.85%
same,Residual rate (%) 30 min,[5],93.03%
same,Residual rate (%) 60 min,[5],77.54%
same,Residual rate (%) 120 min,[5],56.77%
same,Residual rate (%) 0 min,"in vitro; human, 0.5 μM",100.00%
same,Residual rate (%) 15 min,"in vitro; human, 0.5 μM",93.77%
same,Residual rate (%) 30 min,"in vitro; human, 0.5 μM",85.72%
same,Residual rate (%) 60 min,"in vitro; human, 0.5 μM",82.51%
same,Residual rate (%) 120 min,"in vitro; human, 0.5 μM",64.44%
same,Residual rate (%) 0 min,"in vitro; mouse plasma, 37° C.",100.00%
same,Residual rate (%) 15 min,"in vitro; mouse plasma, 37° C.",97.50%
same,Residual rate (%) 30 min,"in vitro; mouse plasma, 37° C.",82.58%
same,Residual rate (%) 60 min,"in vitro; mouse plasma, 37° C.",81.82%
same,Residual rate (%) 120 min,"in vitro; mouse plasma, 37° C.",63.23%
